In article PMC6272399, “Anti-Proliferative Effect and Induction of Apoptosis in Androgen-Independent Human Prostate Cancer Cells by 1,5-Bis(2-hydroxyphenyl)-1,4-pentadiene-3-one” (Molecules, 2015):

How the values were obtained:
DU 145 cells [1] = assay: MTT cytotoxicity (cell viability) assay, DU 145; format: cell-based, human
Procedure: (§1) Cell viability was determined by the MTT [3-(4,5-dimethylthiazol-2-yl)-2,5-diphenyltetrazolium bromide] assay, as previously described by Mosmann with modifications. Briefly, cells were detached from the tissue culture flask and pelleted by centrifugation at 1000 rpm for 5 min. Then, the density of the viable cells was counted using a haemocytometer. Cells were then plated in a 96-well flat bottom micro-titer plate (Nunc) at a concentration of 10^4 cells/mL and incubated in a 5% CO2 incubator at 37 °C overnight to allow the cells to adhere to the bottom of the wells. After 24 h, the media was aspirated off and replaced with fresh media containing sample compounds (curcumin and curcumin analogues) of seven different concentrations ranging from 1.56 µM–100 µM and incubated at 37 °C, 5% CO2 for 72 h. Separately, the sample compounds were prepared in a stock solution of 50 mM in 100% dimethyl sulfoxide (DMSO, Molecular Biology Grade, Sigma-Aldrich, St. Louis, MO, USA) and diluted in the culture media to a working concentration of 200 µM. Curcumin, the parent compound which was used as the positive control was also prepared in the similar manner. A two-fold serial dilution was done for each sample in triplicates down the columns of the plate, yielding a final volume and concentration of 100 µL in 0.2% DMSO in each wells. Following treatment, 50 µL MTT solutions (0.5 mg/mL in PBS) was added to each well and incubated for another 4 h at 37 °C in a humidified 5% CO2 incubator. The supernatant was replaced with 100 µL of DMSO and the optical density (OD) was measured at 570/650 nm using a micro-plate ELISA reader (Bio-Rad Laboratories, Hercules, CA, USA). The percentage of viable cells was calculated based on the ratio of the corrected absorbance of sample-treated cells to the corrected absorbance of the control (0.2% DMSO-treated cells) multiplied by 100. The percentage of cell viability was determined as follows: % Cell viability= OD of treated cells /OD of control ×100
(§2) For each compound tested, the EC50 value was generated from the log dose-response curves for each cell line using the Graphpad Prism version 5.04 for Windows (Graphpad Software, La Jolla, CA, USA). […] Cytotoxicity of each tested compound is expressed as the EC50 value. Based on the EC50 values, selectivity index (SX) value was also determined. Selectivity index is a special parameter applied as a selectivity indicator of tested compounds towards cancer cells. The SX represents the ratio of EC50 value obtained in toxicity testing using the normal cell lines to the EC50 values of the toxicity testing of the cancer cells, and then multiplied by 100. All the compounds were assessed for their potential toxicity against normal, non-cancerous cells. […] The SX values were calculated using the following equation: SX = EC50 (normal cells)/EC50 (cancer cells) × 100

[2] = system: WRL 68 (human epithelial hepatocytes); assay: MTT cytotoxicity assay, normal WRL 68; format: cell-based; settings: WRL68, normal cell line, 72 h treatment, mean ± SD, read-out: EC50 Values (µM) of Compounds on Cell Lines WRL-68
Procedure: as §1, §2

PC-3 cells [3] = assay: MTT cytotoxicity (cell viability) assay, PC-3; format: cell-based, human
Procedure: as §1, §2

PC-3 cells [4] = assay: BrdU cell proliferation assay, PC-3; format: cell-based, human; settings: PC-3, BrdU
Procedure: The anti-proliferative effects of compound on treated cells, was measured using the BrdU cell proliferation assay kit (Roche Applied Science Diagnostics, Indianapolis, IN, USA) according to the manufacturer’s protocol. The assay was based on incorporation of BrdU during DNA synthesis in proliferating cells. Cells were plated at a concentration of 10^4 cells/mL in a 96-well microtiter plate and incubated overnight. The cells were treated with compounds and curcumin (concentrations ranging from 1.56 µM–100 µM) as positive control for 24, 48 and 72 h respectively. Then, BrdU labeling solution (5 µL, diluted by 1/100 in culture media) was added to each well and incubated for 2 h at 37 °C. The media was replaced with fix/denaturing solution (100 µL) and incubated for 30 min at room temperature. Then, the fix/denaturing solution was removed by tapping off and followed by addition of 50 µL anti-BrdU antibody (50 µL, diluted by 1/100 in dilution buffer) to each well and further incubated for another 90 min at room temperature. Next, the cells were washed 3 times with wash buffer and substrate solution (50 µL) was added to each well. The plate was left for 10 min at room temperature in the dark and the absorbance was measured at a wavelength of 370 nm with a reference wavelength of 492 nm using a micro-plate ELISA reader (Bio-Rad). The percentage of BrdU incorporation was determined based on the ratio of absorbance of sample treated-cells to absorbance of control (untreated cells/DMSO only) multiplied by 100.

DU 145 cells [5] = assay: Free nucleosome detection (Cell Death Detection ELISA), DU 145; format: cell-based, human; settings: DU 145, 8.4 µM compared with 4.2 and 12.6 µM, all time points
Procedure: To confirm the presence of histone-bound DNA fragments (free nucleosomes) in the prostate cancer cells after the treatment of MS17, Cell Death Detection ELISA^PLUS kit (Roche Diagnostics) was used according to the manufacturer’s protocol. Cells were plated on a bottom flat tissue culture plates at a concentration of 10^5 cells per well and incubated for 24 h to allow the cells to adhere. After overnight incubation, MS17 at various concentrations (EC50, 2 × EC50, 3 × EC50) were added to a final volume of 100 µL per well and further incubated for 24, 48 and 72 h. The plate was centrifuged at 600 rpm at 4 °C for 10 min. The cell pellet containing the apoptotic bodies was resuspended in lysis buffer and incubated for 30 min at room temperature. […] The amount of nucleosomes retained by the POD in the immunocomplex, corresponding to the extent of apoptosis and necrosis, was determined with 2,2'-azinobis-3-ethyl-benzothiazoline-6-sulfonic acid (ABTS) as substrate using a micro-plate ELISA reader at a wavelength of 405/490 nm. The amount of enrichment of mono- and oligonucleosomes released into the cytoplasm was calculated using the following formula: Enrichment factor= Absorbance of sample/Absorbance of control

[6] = system: WI-38 (human lung fibroblast cells); assay: MTT cytotoxicity assay, normal WI-38; format: cell-based; settings: normal cell line, 72 h treatment, mean ± SD, read-out: EC50 Values (µM) of Compounds on Cell Lines WI-38
Procedure: as §1, §2

O=C(C=Cc1ccccc1O)C=Cc1ccccc1O [MS17, 1,5-bis(2-hydroxyphenyl)-1,4-pentadiene-3-one]
dose from which decrease in cell viability is significant (DU 145 cells [1]; DU 145, MTT, vs untreated): 6.3 µM | EC50 (DU 145 cells [1]; Homo sapiens, DU-145, MTT, 72 h treatment, mean ± SD, three experiments, read-out: EC50 Values (µM) of Compounds on Cell Lines DU 145): 4.1 ± 0.8 µM | Selective index (SX) WI-38 vs DU 145 (DU 145 cells [1]; SX = EC50 (WI-38)/EC50 (DU 145) × 100): 126.3 | Selective index (SX) WRL68 vs DU 145 (DU 145 cells [1]; SX = EC50 (WRL68)/EC50 (DU 145) × 100): 134.3 | EC50 [2]: 5.5 ± 0.5 µM | EC50 (PC-3 cells [3]; Homo sapiens, PC-3, MTT, 72 h treatment, mean ± SD, three experiments, read-out: EC50 Values (µM) of Compounds on Cell Lines PC-3): 4.4 ± 0.3 µM | dose from which decrease in cell viability is significant (PC-3 cells [3]; PC-3, MTT, vs untreated): 3.1 µM | Selective index (SX) WI-38 vs PC-3 (PC-3 cells [3]; SX = EC50 (WI-38)/EC50 (PC-3) × 100): 117.4 | Selective index (SX) WRL68 vs PC-3 (PC-3 cells [3]; SX = EC50 (WRL68)/EC50 (PC-3) × 100): 124.9 | concentration from which anti-proliferative activity is significant (PC-3 cells [4]; 24 h): 6.3 µM | concentration from which anti-proliferative activity is significant (PC-3 cells [4]; 48 h): 12.5 µM | concentration from which anti-proliferative activity is significant (PC-3 cells [4]; 72 h): 12.5 µM | nucleosomal fragments (enrichment factor) (DU 145 cells [5]): significant increase in nucleosomal fragments | EC50 [6]: 5.2 ± 1.2 µM
